Results: article PMC12073438, “Stereoselectivity of In Vivo Processes and Bioactivity of Farrerol Enantiomers” (Molecules, 2025)

Assays:
CYP2A6 = biological target: T1, CYP2A6 (Homo sapiens, UniProt P11509); assay: CYP inhibition in liver microsomes (coumarin); conditions: CYP 2A6; marker substrate coumarin; liver microsomes
T1 sequence (P11509 1-494): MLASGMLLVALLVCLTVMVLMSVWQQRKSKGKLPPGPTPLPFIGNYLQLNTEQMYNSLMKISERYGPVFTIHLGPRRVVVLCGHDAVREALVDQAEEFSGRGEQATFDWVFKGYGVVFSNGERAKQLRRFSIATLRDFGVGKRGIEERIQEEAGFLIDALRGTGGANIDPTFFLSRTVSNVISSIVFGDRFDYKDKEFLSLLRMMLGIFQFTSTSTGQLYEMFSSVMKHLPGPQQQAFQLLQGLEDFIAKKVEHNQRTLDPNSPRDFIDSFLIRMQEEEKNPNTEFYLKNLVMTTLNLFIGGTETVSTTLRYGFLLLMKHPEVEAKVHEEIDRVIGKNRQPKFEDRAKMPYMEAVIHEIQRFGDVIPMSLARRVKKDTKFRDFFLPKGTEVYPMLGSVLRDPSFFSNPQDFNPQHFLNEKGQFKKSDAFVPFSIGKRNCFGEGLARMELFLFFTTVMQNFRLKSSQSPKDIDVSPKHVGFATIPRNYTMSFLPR
Experimental: (§1) A liver microsome working solution (20 mg/mL) contained potassium phosphate buffer (0.1 M, pH 7.4), hepatic microsomes and marker substrate solution, which phenacetin, diclofenic acid, S-mephenytoinwer, dextromethorphan, midazolam, coumarin and chlorzoxazone used as substrates for […], CYP2C9, CYP2C19, CYP2D6, CYP3A4/5, CYP2A6 and CYP2E1, respectively. In brief, 238.5 µL of liver microsome working solution was placed in a 1 mL EP tube. […] The reaction was started by injecting NADPH (1 mM), and the resulting mixture was incubated at 37 °C for 10 min. After centrifuging at 4000 rpm for 15 min, the supernatant was transferred and analyzed using LC-MS/MS to detect the corresponding metabolites. Each incubation was conducted in triplicate (n = 3).
(§2) An API 4000 LC/tandem mass spectrometry was used to analyze the concentration of metabolites of various chemical agents using a validated mode. An Atlantis T3 column (2.1 mm × 50 mm, 5 μm) was utilized, employing mobile phases consisting of a 0.1% formic acid solution (A) and a 0.1% acetonitrile formate solution (B). […] As for the detection of CYP 2E1 metabolite, the Flow composition was as follows: 0–0.30 min, 10% B; 0.30–1.30 min, 10–55% B; 1.30–1.50 min, 55–95% B; 1.50–2.00 min, 95% B; 2.00–2.01 min, 95–10% B; the low rate was 0.85 mL/min. ESI was conducted in positive ion mode. MRM was utilized to quantify each metabolite, detecting the following transitions: m/z 152.1/110 for acetaminophen, 312.1/230.0 for 4′-Hydroxydiclofenac, 235.0/150.0 for 4′-hydroxymephentoin, 258.2/199.1 for Dextrorphan, 342.1/203.0 for 1′-hydroxymidazolam, 161.1/133.1 for hydroxycoumarin, and 184.0/120.0 for 6-hydroxyclozoxadone.

[1] = Stereoselective pharmacokinetics in rat plasma; assay type: in vivo, Sprague–Dawley rats
Experimental: The pharmacokinetic data were optimally characterized by a noncompartmental model. The mean concentration-time profiles for the farrerol enantiomers are illustrated in Figure 3, along with the corresponding key pharmacokinetic parameters presented in Table 2.
Twenty-five rats were randomly divided into five experimental groups (A, B, C, D, and E). Groups A and B received farrerol racemate via intragastric administration at doses of 150 mg/kg and 75 mg/kg, respectively. Group C was administered 4 mg/kg of farrerol racemate through caudal intravenous administration. […] Blood samples (300 μL) were obtained from the orbital venous plexus into heparinized tubes at various time points: 0.25, 0.5, 1, 2, 3, 5, 7, 9, 12, and 24 h following gavage administration, and at 0.083, 0.167, 0.25, 0.5, 1, 1.5, 2, 2.5, 3, and 5 h post-intravenous administration. Plasma was separated by centrifugation (3000 rpm, 10 min) and stored at −80 °C until analysis.
A total of 150 μL of plasma and 50 μL of the internal standard solution were added to a 1.5 mL EP tube and mixed using a vortex for 30 s. Subsequently, 500 μL of ether was introduced, and the mixture was vortexed for 5 min. Following centrifugation at 10,000 rpm for 10 min, the resulting organic layer was carefully transferred to a separate tube. Each sample underwent two extraction processes. The resulting ether layer was then evaporated to dryness using a continuous air stream at room temperature. A 250 μL aliquot of methanol was employed to re-dissolve the residue, utilizing vortex mixing for 2 min. Following centrifugation at 14,000 rpm for 10 min, the supernatant was subsequently injected into the HPLC-MS system for analysis.
(§3) Stereoselective chromatographic analysis of farrerol enantiomers was conducted utilizing an ACQUITY UPLC I-Class UPLC system (Waters, Milford, MA, USA), which is equipped with a quaternary pump and an autosampler. The chiral separation was carried out employing a Chiralpak OJ-RH column (250 mm × 4.6 mm, 5 μm), which was obtained from Daicel Chemical Industries (Shanghai, China). The mobile phase consisted of ACN-H2O (60:40, v/v), and the constant flow rate was 0.5 mL/min. The column temperature was set at 25 °C, and the injection volume was 10 μL.
(§4) Mass detection was conducted using a triple quadrupole mass spectrometer (Waters Co., USA) equipped with an electrospray ionization (ESI) source. The detection of enantiomers and internal standards (IS) was carried out in multiple reaction monitoring (MRM) mode utilizing negative ionization. The m/z 299→179 for enantiomers and m/z 267→252 for IS were selected as detecting ions for quantitation. The collision energies (CE) were established at 22 eV and 20 eV, respectively. The primary mass spectrometry (MS) parameters were configured as follows: capillary voltage was set to 3.5 kV, ion source temperature was maintained at 150 °C, desolvation gas flow rate was 800 L/h, and the cone voltage (CV) was adjusted to 1.3 V.
(§5) Pharmacokinetic analysis was conducted utilizing the Drug and Statistics (DAS) 2.0 software provided by the Chinese Pharmacological Society. To assess the differences in pharmacokinetic parameters, the IC50 values of the evaluated CYP enzymes and the permeability coefficients between the two farrerol enantiomers, paired sample t-tests and independent sample t-tests were performed. Statistical significance was defined as * p < 0.05 and ** p < 0.01. All results are presented as mean values ± standard deviation (SD).

[2] = Stereoselective pharmacokinetics in rat liver tissue; assay type: in vivo, Sprague–Dawley rats; conditions: rat liver tissue; i.g. 40 mg/kg racemate, within 24 h
Experimental: (§6) Forty-two rats were divided randomly into seven groups (6 rats per time point at 0.5, 1, 2, 4, 8, 12, and 24 h) and were orally administered farrerol racemate at a dose of 40 mg/kg. Rats from each group were euthanized, and kidney and liver tissues were subsequently obtained. After washing three times using 0.9% sodium chloride solution, the attached blood and fat tissues were removed. Afterward, 0.5 g of the precisely weighed liver and kidney tissues were added to 1 mL 0.9% sodium chloride solution and homogenized in an ice bath. Subsequently, 150 µL of supernatant was transferred into a 2.0 mL EP tube for pre-treatment, in the same way as the pretreatment of plasma samples (see Section 3.4.1).
as §3, §4, §5

[3] = Stereoselective pharmacokinetics in rat kidney tissue; assay type: in vivo, Sprague–Dawley rats; conditions: rat kidney tissue; i.g. 40 mg/kg racemate, within 24 h
Experimental: as §6, §3, §4, §5

CYP3A4/5 = assay: CYP inhibition in liver microsomes (midazolam); conditions: human, microsomes, pH 7.4
Experimental: as §1, §2

CYP2C9 = CYP2C9 (Homo sapiens, UniProt P11712); assay: CYP inhibition in liver microsomes (diclofenac); conditions: CYP 2C9, marker substrate diclofenac
Experimental: as §1, with “After centrifuging at 4000 rpm for 15 min, the supernatant was transferred and analyzed using LC-MS/MS to detect the corresponding metabolites.” left out
An API 4000 LC/tandem mass spectrometry was used to analyze the concentration of metabolites of various chemical agents using a validated mode. An Atlantis T3 column (2.1 mm × 50 mm, 5 μm) was utilized, employing mobile phases consisting of a 0.1% formic acid solution (A) and a 0.1% acetonitrile formate solution (B). […] ESI was conducted in positive ion mode.

CYP1A2 = biological target: T2, CYP1A2 (Homo sapiens, UniProt P05177); assay: CYP inhibition in liver microsomes (phenacetin); conditions: CYP 1A2, marker substrate phenacetin
T2 sequence (P05177 1-516): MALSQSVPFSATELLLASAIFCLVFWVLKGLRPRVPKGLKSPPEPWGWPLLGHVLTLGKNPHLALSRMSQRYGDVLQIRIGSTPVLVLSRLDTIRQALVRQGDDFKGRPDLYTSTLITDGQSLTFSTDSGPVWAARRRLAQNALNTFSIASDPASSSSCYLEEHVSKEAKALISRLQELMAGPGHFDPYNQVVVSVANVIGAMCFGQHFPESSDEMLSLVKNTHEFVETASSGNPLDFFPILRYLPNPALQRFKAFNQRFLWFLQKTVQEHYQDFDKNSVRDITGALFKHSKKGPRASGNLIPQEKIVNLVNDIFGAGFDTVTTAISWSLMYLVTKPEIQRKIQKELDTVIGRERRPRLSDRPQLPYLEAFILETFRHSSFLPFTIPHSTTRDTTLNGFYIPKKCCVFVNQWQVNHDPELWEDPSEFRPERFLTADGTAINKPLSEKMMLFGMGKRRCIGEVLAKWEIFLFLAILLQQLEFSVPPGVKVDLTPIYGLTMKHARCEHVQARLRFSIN
Experimental: as §1, §2

Sequence of CYP2C9 (P11712 whole entry): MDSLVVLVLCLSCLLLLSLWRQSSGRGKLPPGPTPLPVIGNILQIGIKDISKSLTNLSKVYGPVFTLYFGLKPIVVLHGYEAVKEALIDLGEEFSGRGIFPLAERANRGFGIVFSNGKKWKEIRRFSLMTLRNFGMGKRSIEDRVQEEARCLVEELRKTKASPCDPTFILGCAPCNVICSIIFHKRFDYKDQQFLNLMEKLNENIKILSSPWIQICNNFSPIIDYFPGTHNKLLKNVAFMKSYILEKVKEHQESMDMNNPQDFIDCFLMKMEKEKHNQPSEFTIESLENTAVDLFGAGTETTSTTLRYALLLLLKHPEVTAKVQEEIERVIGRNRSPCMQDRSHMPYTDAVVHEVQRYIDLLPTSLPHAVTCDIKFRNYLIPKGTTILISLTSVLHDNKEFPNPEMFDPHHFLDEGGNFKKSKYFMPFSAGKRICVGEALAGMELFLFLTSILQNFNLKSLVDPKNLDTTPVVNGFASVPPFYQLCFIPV

N[C@@H]1C[C@H]1c1ccccc1 (racemic) [Tranylcypromine, reference compound]
IC50 (CYP2A6): 383 nM

Cc1c(O)c(C)c2c(c1O)C(=O)CC(c1ccc(O)cc1)O2 (racemic) [racemic farrerol, 2,3-dihydro-5,7-dihydroxy-2-(4-hydroxyphenyl)-6,8-dimethyl-4-benzopyrone]
enantiomeric fraction (EF) = E(+)/(E(+)+E(−)) ([1]; intravenous administration of racemate): around 0.7
enantiomeric fraction (EF) = E(+)/(E(+)+E(−)) ([1]; oral administration of racemate (all doses)): greater than 0.6
enantiomeric fraction (EF) = E(+)/(E(+)+E(−)) ([1]; oral dose of 75 mg/kg, approximately 1.5 to 24 h): around 0.8
enantiomeric fraction (EF) = E(+)/(E(+)+E(−)) [2]: less than 0.5
enantiomeric fraction (EF) = E(+)/(E(+)+E(−)) [3]: less than 0.5

CC(=O)N1CCN(c2ccc(OCC3COC(Cn4ccnc4)(c4ccc(Cl)cc4Cl)O3)cc2)CC1 (stereo not drawn) [ketoconazole, reference compound]
IC50 at 10 min (CYP3A4/5): 10.4 nM

Nc1ccc(S(=O)(=O)Nc2ccnn2-c2ccccc2)cc1 [sulfaphenazole, reference compound]
IC50 (CYP2C9): 219 nM

O=c1cc(-c2ccccc2)oc2ccc3ccccc3c12 [β-naphthoflavone, reference compound]
IC50 (CYP1A2): 129 nM
